Reference: patent US8044037B2, “Modified phosphocalcic compound, injectable composition containing same” (Centre National de la Recherche Scientifique, priority 2002, dated 2011)

Tested on: rabbit osteoclast model (osteoclast resorption)
Test: Supernatants of incubated CDA samples tested in rabbit osteoclast model (FIG. 6)
Format: cell-based
Conditions: supernatant after 96 hours at 37° C. (200 mg in 5 ml culture medium) or 10^−6 M zoledronate solution; pure, diluted 10-, 100- and 1000-fold
Experimental: Several samples of CDA (200 mg) modified by adding zoledronate in accordance with the process of example 1 and several samples of unmodified CDA were incubated in 5 ml of culture medium at 37° C. After incubation for 96 hours, the various supernatants were collected and used pure, diluted 10-fold, 100-fold and 1000-fold in a rabbit osteoclast model.
The results are represented in FIG. 6, in which the percentage of resorption R is indicated on the y-axis, the conditions being indicated on the x-axis. Among the conditions: • “vehicle” means the culture medium alone • “pure CDA” means the supernatant derived from the incubation of pure CDA in the culture medium; “CDA 1/10”, “CDA 1/100” and “CDA 1/1000” mean, respectively, the solution referred to above and diluted to 1/10, 1/100 and 1/1000 • “pure zo” means a 10^−6 M solution of zoledronate in the culture medium, “zo 1/10”, “zo 1/100” and “zo 1/1000” mean, respectively, the solution referred to above and diluted to 1/10, 1/100 and 1/1000 • “pure CDAzo” means the supernatant derived from the incubation of zoledronate-containing CDA in the culture medium, and “CDAzo 1/10”, “CDAzo 1/100” and “CDAzo 1/1000” mean, respectively, the solution referred to above and diluted to 1/10, 1/100 and 1/1000.

O=P(O)(O)C(O)(Cn1ccnc1)P(=O)(O)O [zoledronate]
effect on osteoclast resorption (percentage of resorption R, FIG. 6): inhibits resorption according to a dose/effect relationship
